According to patent US10045981B2, “Selective kinase inhibitors” (JAKPHARM, LLC, priority 2015, dated 2018):
Converted amounts (≈) assume the structure as drawn. Like-named read-outs stand apart in the source and are kept apart here.

What was measured:
[1] = Human Plasma protein binding; type: in vitro ADME
[2] = target: EGFR (L861Q) (Homo sapiens, UniProt P00533, L861Q); assay: Exemplary Kinase Panel Analysis; type: biochemical; conditions: 10 concentrations, 3-fold serial dilutions starting at 5 μM, duplicate
[3] = target: EGFR (d746-750) (Homo sapiens, UniProt P00533, DEL746-750); assay: Exemplary Kinase Panel Analysis; type: biochemical; conditions: 10 concentrations, 3-fold serial dilutions starting at 5 μM, duplicate
Sequence of EGFR (d746-750) (P00533 with tags, fused parts or gaps DEL746-750 limits assumed): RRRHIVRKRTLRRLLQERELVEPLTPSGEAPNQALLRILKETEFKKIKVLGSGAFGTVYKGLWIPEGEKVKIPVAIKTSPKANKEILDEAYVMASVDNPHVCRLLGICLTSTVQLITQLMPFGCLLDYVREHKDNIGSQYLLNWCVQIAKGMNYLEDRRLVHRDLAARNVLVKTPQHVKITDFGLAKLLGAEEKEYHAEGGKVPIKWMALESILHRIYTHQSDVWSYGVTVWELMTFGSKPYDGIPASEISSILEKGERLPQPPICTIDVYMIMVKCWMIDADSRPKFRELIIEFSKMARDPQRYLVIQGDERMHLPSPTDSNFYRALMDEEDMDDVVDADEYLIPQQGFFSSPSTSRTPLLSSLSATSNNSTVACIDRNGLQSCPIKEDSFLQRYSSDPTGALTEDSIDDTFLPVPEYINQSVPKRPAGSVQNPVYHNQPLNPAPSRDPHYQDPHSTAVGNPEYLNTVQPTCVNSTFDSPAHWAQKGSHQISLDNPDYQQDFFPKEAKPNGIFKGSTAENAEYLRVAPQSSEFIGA

[4] = target: CK1g1 (Homo sapiens, UniProt Q9HCP0); assay: Exemplary Kinase Panel Analysis; type: biochemical; conditions: 10 concentrations, 3-fold serial dilutions starting at 5 μM, duplicate
Sequence of CK1g1 (Q9HCP0 whole entry): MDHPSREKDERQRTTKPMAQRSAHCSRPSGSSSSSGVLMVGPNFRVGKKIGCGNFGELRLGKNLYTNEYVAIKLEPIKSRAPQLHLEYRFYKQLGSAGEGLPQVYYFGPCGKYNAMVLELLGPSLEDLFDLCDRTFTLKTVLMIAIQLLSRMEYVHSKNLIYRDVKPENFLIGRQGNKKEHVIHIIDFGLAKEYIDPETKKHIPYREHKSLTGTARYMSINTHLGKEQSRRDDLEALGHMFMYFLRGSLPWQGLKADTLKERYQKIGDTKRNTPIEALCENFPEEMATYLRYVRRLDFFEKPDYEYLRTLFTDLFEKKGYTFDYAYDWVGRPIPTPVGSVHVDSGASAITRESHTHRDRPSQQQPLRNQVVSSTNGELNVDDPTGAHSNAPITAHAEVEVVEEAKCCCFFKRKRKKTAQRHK

[5] = target: T1, CYP1A2 (Homo sapiens, UniProt P05177); assay: CYP1A2 inhibition LCMS; type: in vitro ADME
T1 sequence (P05177 1-516): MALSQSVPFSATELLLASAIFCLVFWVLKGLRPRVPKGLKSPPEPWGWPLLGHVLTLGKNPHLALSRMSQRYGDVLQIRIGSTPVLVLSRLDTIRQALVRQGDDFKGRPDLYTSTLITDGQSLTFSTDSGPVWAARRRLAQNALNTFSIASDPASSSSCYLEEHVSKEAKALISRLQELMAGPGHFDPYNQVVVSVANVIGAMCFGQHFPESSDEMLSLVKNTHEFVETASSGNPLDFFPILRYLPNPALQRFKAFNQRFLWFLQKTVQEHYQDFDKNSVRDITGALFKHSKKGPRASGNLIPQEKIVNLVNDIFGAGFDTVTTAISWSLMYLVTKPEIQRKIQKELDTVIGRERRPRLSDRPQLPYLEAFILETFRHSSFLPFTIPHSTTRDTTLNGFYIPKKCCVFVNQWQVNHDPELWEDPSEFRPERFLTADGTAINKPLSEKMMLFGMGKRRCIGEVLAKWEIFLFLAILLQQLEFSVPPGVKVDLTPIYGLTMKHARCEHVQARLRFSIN

[6] = target: CYP2C19 (Homo sapiens, UniProt P33261); assay: CYP2C19 inhibition LCMS; type: in vitro ADME
Sequence of CYP2C19 (P33261 whole entry): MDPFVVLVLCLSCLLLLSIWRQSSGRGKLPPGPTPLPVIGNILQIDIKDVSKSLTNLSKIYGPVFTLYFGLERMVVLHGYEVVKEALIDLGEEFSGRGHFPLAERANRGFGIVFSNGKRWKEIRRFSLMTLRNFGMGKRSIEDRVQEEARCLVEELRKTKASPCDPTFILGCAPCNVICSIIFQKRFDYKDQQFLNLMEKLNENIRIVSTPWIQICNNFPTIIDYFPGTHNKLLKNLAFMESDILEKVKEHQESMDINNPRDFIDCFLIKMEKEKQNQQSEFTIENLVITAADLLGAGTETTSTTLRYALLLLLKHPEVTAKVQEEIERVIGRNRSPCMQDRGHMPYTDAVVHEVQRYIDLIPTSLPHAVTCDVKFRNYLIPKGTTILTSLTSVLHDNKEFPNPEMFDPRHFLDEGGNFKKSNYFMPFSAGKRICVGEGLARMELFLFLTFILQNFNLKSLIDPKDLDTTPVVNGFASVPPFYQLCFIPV

[7] = Cytotoxicity Screening L929 Fibroblasts; type: cell-based; conditions: mouse, read-out: 50% Maximal Effect Concentration (AC50)
From the text: (§1) The cytotoxicity screening panel included cell count, nuclear size, DNA structure, cell membrane permeability, mitochondrial mass, mitochondrial membrane potential, and cytochrome C release.

[8] = system: L929 Fibroblasts; assay: Cytotoxicity Screening L929 Fibroblasts; type: cell-based
From the text: as §1

[9] = target: EGFR (T790M) (Homo sapiens, UniProt P00533, T790M); assay: Exemplary Kinase Panel Analysis; type: biochemical; conditions: 10 concentrations, 3-fold serial dilutions starting at 5 μM, duplicate
Sequence of EGFR (T790M) (P00533 25-1210 T790M): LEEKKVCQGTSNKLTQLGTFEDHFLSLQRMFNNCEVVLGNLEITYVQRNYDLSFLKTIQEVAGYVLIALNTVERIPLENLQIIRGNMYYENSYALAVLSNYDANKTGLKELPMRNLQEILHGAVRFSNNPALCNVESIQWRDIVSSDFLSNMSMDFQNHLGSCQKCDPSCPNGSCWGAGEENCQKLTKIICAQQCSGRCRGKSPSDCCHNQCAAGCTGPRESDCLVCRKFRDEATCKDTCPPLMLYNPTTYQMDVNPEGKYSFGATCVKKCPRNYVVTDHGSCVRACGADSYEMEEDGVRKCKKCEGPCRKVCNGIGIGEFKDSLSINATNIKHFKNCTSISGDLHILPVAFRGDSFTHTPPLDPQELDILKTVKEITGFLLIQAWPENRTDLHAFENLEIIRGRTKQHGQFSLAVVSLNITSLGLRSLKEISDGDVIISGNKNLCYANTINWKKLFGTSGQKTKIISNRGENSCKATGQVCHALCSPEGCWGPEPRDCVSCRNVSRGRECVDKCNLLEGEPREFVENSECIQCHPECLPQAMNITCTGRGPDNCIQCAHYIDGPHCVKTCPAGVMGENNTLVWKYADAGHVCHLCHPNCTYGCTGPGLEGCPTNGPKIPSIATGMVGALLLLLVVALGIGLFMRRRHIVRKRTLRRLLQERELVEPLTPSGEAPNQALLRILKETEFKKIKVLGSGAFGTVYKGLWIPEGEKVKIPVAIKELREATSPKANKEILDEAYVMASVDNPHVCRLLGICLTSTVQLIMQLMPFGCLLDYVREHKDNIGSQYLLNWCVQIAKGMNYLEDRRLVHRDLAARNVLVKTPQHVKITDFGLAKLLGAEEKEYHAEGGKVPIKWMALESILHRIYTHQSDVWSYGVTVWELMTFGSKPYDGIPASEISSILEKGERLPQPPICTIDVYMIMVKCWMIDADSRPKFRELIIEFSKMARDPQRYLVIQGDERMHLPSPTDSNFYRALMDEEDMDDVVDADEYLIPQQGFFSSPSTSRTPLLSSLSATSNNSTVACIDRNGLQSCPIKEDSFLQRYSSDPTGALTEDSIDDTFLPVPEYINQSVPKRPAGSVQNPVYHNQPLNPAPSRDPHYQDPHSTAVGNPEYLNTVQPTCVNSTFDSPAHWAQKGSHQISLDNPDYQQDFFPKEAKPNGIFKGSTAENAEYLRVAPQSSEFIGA

[10] = Mouse Liver Microsomes stability; type: in vitro ADME; conditions: read-out: Mouse Liver Microsomes t½
[11] = Human Liver Microsomes stability; type: in vitro ADME; conditions: read-out: Human Liver Microsomes t½
[12] = Solubility in aqueous buffer; type: physicochemical; conditions: for solubility: aqueous buffer
[13] = target: EGFR (G719C) (Homo sapiens, UniProt P00533, G719C); assay: Exemplary Kinase Panel Analysis; type: biochemical; conditions: 10 concentrations, 3-fold serial dilutions starting at 5 μM, duplicate
Sequence of EGFR (G719C) (P00533 25-1210 G719C): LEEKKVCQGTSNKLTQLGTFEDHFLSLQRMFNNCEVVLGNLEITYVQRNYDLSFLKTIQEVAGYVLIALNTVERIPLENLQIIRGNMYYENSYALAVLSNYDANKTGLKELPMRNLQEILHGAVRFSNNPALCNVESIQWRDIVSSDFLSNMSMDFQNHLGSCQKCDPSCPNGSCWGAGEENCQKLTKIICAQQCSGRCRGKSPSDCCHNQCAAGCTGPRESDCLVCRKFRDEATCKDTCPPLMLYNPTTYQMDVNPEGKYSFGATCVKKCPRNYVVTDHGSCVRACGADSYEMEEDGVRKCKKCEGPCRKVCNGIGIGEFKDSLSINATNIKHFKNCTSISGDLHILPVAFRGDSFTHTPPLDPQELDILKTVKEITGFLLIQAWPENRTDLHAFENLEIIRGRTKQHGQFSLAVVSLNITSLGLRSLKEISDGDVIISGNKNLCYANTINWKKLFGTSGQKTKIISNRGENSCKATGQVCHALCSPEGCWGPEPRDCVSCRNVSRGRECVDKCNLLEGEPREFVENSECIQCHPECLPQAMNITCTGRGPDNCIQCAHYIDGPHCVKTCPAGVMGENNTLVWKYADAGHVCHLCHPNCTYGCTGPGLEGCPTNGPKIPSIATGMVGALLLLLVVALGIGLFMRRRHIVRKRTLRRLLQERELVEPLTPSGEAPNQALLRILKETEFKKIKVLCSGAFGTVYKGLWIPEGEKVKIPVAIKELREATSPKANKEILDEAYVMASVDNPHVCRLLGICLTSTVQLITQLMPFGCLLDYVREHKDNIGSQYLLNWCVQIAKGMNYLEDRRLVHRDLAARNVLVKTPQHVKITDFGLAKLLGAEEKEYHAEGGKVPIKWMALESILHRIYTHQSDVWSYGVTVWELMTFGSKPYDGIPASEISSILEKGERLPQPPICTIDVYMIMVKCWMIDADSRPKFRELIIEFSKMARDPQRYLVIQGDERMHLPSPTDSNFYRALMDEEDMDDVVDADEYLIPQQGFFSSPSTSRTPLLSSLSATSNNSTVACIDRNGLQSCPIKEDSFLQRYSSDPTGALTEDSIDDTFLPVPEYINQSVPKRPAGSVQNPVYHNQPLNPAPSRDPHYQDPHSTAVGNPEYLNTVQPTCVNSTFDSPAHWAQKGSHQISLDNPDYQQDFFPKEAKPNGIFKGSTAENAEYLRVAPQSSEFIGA
Experimental: (§2) Kinase Panel: These compounds were tested against 439 kinases. […]. […] The results are presented in Table 2 below, where empty cells indicate no inhibition or compound activity that could not be fit to an IC50 curve.

[14] = target: EGFR (Homo sapiens, UniProt P00533); assay: Exemplary Kinase Panel Analysis; type: biochemical; conditions: 10 concentrations, 3-fold serial dilutions starting at 5 μM, duplicate
Experimental: as §2

[15] = target: CK1g3 (Homo sapiens, UniProt Q9Y6M4); assay: Exemplary Kinase Panel Analysis; type: biochemical; conditions: 10 concentrations, 3-fold serial dilutions starting at 5 μM, duplicate
Sequence of CK1g3 (Q9Y6M4 whole entry): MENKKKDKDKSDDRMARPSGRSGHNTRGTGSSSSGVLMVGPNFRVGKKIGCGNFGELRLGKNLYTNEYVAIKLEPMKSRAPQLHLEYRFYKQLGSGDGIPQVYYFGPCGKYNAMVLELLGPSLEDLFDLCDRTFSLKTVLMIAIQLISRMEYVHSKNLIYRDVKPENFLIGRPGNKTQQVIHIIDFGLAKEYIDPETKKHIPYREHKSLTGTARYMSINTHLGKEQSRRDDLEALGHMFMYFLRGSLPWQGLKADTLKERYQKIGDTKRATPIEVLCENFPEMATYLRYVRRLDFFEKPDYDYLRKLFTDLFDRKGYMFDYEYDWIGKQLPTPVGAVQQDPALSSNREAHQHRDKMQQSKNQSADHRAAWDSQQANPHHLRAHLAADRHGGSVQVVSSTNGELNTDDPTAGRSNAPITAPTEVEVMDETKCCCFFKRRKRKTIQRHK

[16] = target: T2, ITK (Homo sapiens, UniProt Q08881); assay: Exemplary Kinase Panel Analysis; type: biochemical; conditions: 10 concentrations, 3-fold serial dilutions starting at 5 μM, duplicate
T2 sequence (Q08881 1-620): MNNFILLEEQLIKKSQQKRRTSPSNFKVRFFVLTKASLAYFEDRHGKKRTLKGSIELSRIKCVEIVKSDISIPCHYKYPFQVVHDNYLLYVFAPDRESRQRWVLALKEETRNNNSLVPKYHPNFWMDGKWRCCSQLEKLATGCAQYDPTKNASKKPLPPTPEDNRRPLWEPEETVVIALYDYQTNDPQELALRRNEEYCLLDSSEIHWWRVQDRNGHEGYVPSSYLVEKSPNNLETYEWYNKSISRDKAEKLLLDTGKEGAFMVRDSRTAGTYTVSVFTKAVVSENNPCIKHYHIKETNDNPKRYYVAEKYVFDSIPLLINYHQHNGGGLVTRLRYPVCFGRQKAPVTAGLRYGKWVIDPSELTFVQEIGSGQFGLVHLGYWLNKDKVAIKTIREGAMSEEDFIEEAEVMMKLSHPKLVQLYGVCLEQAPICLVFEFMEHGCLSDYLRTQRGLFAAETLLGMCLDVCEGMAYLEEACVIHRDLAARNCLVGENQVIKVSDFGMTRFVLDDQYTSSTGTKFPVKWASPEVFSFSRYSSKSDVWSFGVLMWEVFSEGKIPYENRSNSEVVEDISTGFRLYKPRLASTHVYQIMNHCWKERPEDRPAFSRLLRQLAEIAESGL

[17] = pH 7.4, aqueous buffer, pH 7.4, Original, read-out: Solubility pH 7.4 (uM) Original
[18] = pH 7.4, aqueous buffer, pH 7.4, Re-test, read-out: Solubility pH 7.4 (uM) Re-test
[19] = pH 7.4, aqueous buffer, pH 7.4, Table 3, first session (before /), read-out: Solubility, pH 7.4
[20] = pH 7.4, aqueous buffer, pH 7.4, Table 3, second session (after /), read-out: Solubility, pH 7.4

fraction unbound [1]	IC50 [4]	IC50 ([5]; first session (before /))	IC50 ([5]; second session (after /))	IC50 ([6]; first session (before /))	IC50 ([6]; second session (after /))	IC50 [9]	half-life ([10]; first session (before /))	half-life ([10]; second session (after /))	half-life ([11]; first session (before /))	half-life ([11]; second session (after /))	solubility [12, 17]	solubility [12, 18]	solubility [12, 19]	solubility [12, 20]	IC50 [13]	IC50 [15]	IC50 [16]	SMILES	AC50 [7]	Minimal Effective Concentration (MEC, uM) [8]	further results
0.223	588 nM	34 µM	> 100 µM	> 100 µM	90 µM	688 nM	7.3 min	15 min	64 min	60 min	85 µM (≈ 34.1 µg/mL)	34 µM (≈ 13.6 µg/mL)	85 µM (≈ 34.1 µg/mL)	34 µM (≈ 13.6 µg/mL)	66.1 nM	358 nM	72.1 nM	C=CC(=O)Nc1cc(CN2CCN(C)C(=O)C2)cc(-c2cnc3ccccc3n2)c1 [Compound 1a]	20 µM	9 µM	IC50 [2]: 352 nM; IC50 [3]: 345 nM; IC50 [14]: 370 nM
0.317	738 nM	> 100 µM	> 100 µM	> 100 µM	> 100 µM	3540 nM	23 min	50 min	75 min	> 60 min	88 µM (≈ 34.1 µg/mL)	88 µM (≈ 34.1 µg/mL)	88 µM (≈ 34.1 µg/mL)	88 µM (≈ 34.1 µg/mL)	193 nM	757 nM	68 nM	C=CC(=O)Nc1cc(CN2CCNC(=O)C2)cc(-c2cnc3ccccc3n2)c1 [Compound 1b, N-[3-[(3-oxopiperazin-1-yl)methyl]-5-quinoxalin-2-yl-phenyl] prop-2-enamide]	45 µM	20 µM	IC50 [2]: 2650 nM; IC50 [3]: 2290 nM; solubility ([12]; pH 5, aqueous buffer, pH 5.0, read-out: Solubility In Aqueous Buffer pH 5.0): 93 µM (≈ 36 µg/mL); solubility ([12]; pH 6.5, aqueous buffer, pH 6.5, read-out: Solubility In Aqueous Buffer pH 6.5): 108 µM (≈ 41.8 µg/mL); solubility at pH 7.4 (in words) ([12]; pH 7.4): highly and consistently soluble; IC50 [14]: 2860 nM
0.123	80.2 nM	90 µM	5.1 µM	> 100 µM	95 µM	3310 nM	3.3 min	6 min	> 1000 min	5.5 min	9 µM (≈ 3.13 µg/mL)	1 µM (≈ 0.347 µg/mL)	9 µM (≈ 3.13 µg/mL)	1 µM (≈ 0.347 µg/mL)	423 nM	24.4 nM	34.9 nM	C=CC(=O)Nc1cc(CC(=O)OC)cc(-c2cnc3ccccc3n2)c1 [Compound 2]	18 µM	2 µM	
0.054	109 nM	> 100 µM	> 100 µM	> 100 µM	59 µM	2240 nM	25 min	84 min	58 min	60 min	34 µM (≈ 12.5 µg/mL)	3 µM (≈ 1.11 µg/mL)	34 µM (≈ 12.5 µg/mL)	3 µM (≈ 1.11 µg/mL)		118 nM	278 nM	C=CC(=O)Nc1cc(NS(C)(=O)=O)cc(-c2cnc3ccccc3n2)c1 [Compound 3]	20 µM	10 µM	
